Assay results published in US10799518B2, “Use of agonists of formyl peptide receptor 2 for treating dermatological diseases” (Allergan, Inc., priority 2013, dated 2020).
pEC50: −log10 of the molar value.

What was measured:
human FPR2 receptor = human FPR2 receptor (Homo sapiens (Human), UniProt P25090); assay: FLIPR Ca+2 response in HEK-Gα16 cells stably expressing the human FPR2 receptor; format: cell-based; conditions: Table 4; for pEC50: HEK-Gα16 human FPR2, FLIPR; for FPR2 (% eff): value in parentheses, given mostly as fraction
human FPR2 receptor, sequence (P25090 whole entry): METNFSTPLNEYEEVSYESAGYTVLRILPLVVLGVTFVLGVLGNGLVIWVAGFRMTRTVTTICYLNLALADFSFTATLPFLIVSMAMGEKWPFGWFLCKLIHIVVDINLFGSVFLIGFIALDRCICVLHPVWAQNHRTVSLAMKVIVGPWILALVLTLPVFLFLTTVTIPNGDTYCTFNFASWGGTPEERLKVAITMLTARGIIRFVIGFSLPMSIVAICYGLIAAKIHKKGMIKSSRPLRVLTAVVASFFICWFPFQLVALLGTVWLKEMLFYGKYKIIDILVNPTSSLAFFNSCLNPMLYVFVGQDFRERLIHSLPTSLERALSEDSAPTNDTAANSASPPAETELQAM
Procedure: HEK-Gα16 cells stably expressing the human FPR2 receptor was utilized. Cells were plated into 384-well poly-D-lysine coated plates at a density of 18,000 cells per well one day prior to use. The growth media was DMEM medium supplemented with 10% fetal bovine serum (FBS), 1% antibiotic-antimycotic, 50 μg/ml hygromycin, and 400 μg/ml geneticin. On the day of the experiment, the cells were washed twice with Hank's Balanced Salt Solution supplemented with 20 mM HEPES (HBSS/hepes buffer). The cells were then dye loaded with 2 μM Fluo-4 diluted in the HBSS/Hepes buffer and incubated at 37° C. for 40 minutes. Extracellular dye was removed by washing the cell plates four times prior to placing the plates in the FLIPR (Fluorometric Imaging Plate Reader, Molecular Devices). Ligands were diluted in HBSS/Hepes buffer and prepared in 384-well microplates. Data for Ca^+2 responses were obtained in relative fluorescence units.

FPRL-1 = FPRL-1 (Homo sapiens (Human), UniProt P25090); assay: FPRL-1 Ga16-CHO EC50 (efficacy); format: cell-based; conditions: Table 3; value in parentheses
FPRL-1, sequence (P25090 whole entry): as above

[1] = system: LL-37-induced inflammation in mouse ears; assay: LL37-induced model of rosacea in mice (ear thickness); format: in vivo; conditions: topical to ears; p<0.05 vs. vehicle; FIG. 2
Procedure: LL37-Induced Model of Rosacea in Mice:
Prior to dosing, animals are lightly anaesthetized with isofluorane and baseline right and left ear thickness measurements are made with a digital caliper (Mitutoyo 293-340). At t=−1 hrs, animals are lightly anaesthetized with isoflurane to allow topical application (dorsal side) of 10 μL of FPR2 agonist formulated in a vehicle consisting of PBS:ethanol (50:50), or vehicle control to both ears. At t=0 hr, mice are re-anaesthetized. Following ear thickness measurements, 20 uL of LL-37 (100 μM) is injected into the right ear, while PBS is injected into the left ear. Additional ear thickness measurements are taken at t=3 and 6 hours. After the last time point, mice are euthanized by CO2 inhalation and ears collected for additional analyses.

| Compound | FPRL-1 Ga16-CHO (efficacy) (FPRL-1) | FPR2 (% eff) (human FPR2 receptor) | further results |
| --- | --- | --- | --- |
| O=C(O)[C@@H]1C2CCC([C@@H]1C(=O)Nc1ccc(Br)cc1)C21CC1 (relative stereo) [Compound 14, rel-(2R,3 S)-3-[(4-brornophenyl)carbarnoyl]spiro [bicyclo[2.2.1]heptane-7,1′-cyclopropane]-2-carboxylic acid] |  | 90% | pEC50 (human FPR2 receptor): 8.40 |
| CC[C@H](C)[C@H](NC(=O)Nc1ccc(Br)cc1)C(=O)NCC(=O)O [Compound 3, {[(2S,3S)-2-{[(4-bromophenyl)carbamoyl]amino}-3-methylpentanoyl]amino} acetic acid] |  |  | inflammation induced by LL-37 in mouse ears [1]: Anti-inflammatory activity |
| CC(C)C[C@H](NC(=O)Nc1ccc(Br)cc1F)C(=O)NCC(=O)O [Compound 7, {[(2S)-2-{[(4-bromo-2-fluorophenyl)carbamoyl]amino}-4-methylpentanoyl]amino} acetic acid] |  |  | inflammation induced by LL-37 in mouse ears [1]: Anti-inflammatory activity |
| CC(C)C[C@H](NC(=O)Nc1ccc(Br)cc1)C(=O)NCC(=O)O [Compound 8, {[(2S)-2-{[(4-bromophenyl)carbamoyl]amino}-4-methylpentanoyl]amino} acetic acid] |  |  | inflammation induced by LL-37 in mouse ears [1]: Anti-inflammatory activity |
| CSc1ccc(NC(=O)C2C(C(=O)O)C3C=CC2C32CC2)cc1 (stereo not drawn) [Compound 31, 3-{[4-(methylsulfanyl)phenyl]carbamoyl} spiro[bicyclo[2.2.1]heptane-7,1′-cyclopropane]-5-ene-2-carboxylic acid] |  | 96% | pEC50 (human FPR2 receptor): 7.85 |
| CC(C)C[C@H](NC(=O)Nc1ccc(Br)cc1)C(=O)N[C@@H](C)C(=O)O [Compound 90, (2S)-2-{[(2S)-2-{[(4-bromophenyl)carbamoyl]amino}-4-methylpentanoyl]amino} propanoic acid] |  | 100% |  |
| CC(C)C[C@H](NC(=O)Nc1ccc(Br)cc1)C(=O)NCC(O)CO (stereo partly drawn) [Compound 95, (2S)-2-{[(4-bromophenyl)carbamoyl]amino}-N-(2,3-dihydroxypropyl)-4-methylpentanamide] |  | 98% |  |
| CCOP(=O)(O)CNC(=O)[C@H](CC(C)C)NC(=O)Nc1ccc(Br)cc1 [Compound 105, ethyl hydrogen ({[(2S)-2-{[(4-bromophenyl)carbamoyl]amino}-4-methylpentanoyl]amino}methyl)phosphonate] |  | 88% |  |
| CCOP(=O)(O)CNC(=O)[C@@H](NC(=O)Nc1ccc(Br)cc1)[C@@H](C)CC [Compound 115, ethyl hydrogen ({[(2S,3S)-2-{[(4-bromophenyl)carbamoyl]amino}-3-methylpentanoyl]amino}methyl)phosphonate] |  | 88% |  |
| CC(C)C[C@H](NC(=O)Nc1ccc(Br)cc1)C(=O)NCc1cc(O)no1 [Compound 116, (2S)-2-{[(4-bromophenyl)carbamoyl]amino}-N-[(3-hydroxy-1,2-oxazol-5 - yl)methyl]-4-methylpentanamide] |  | 100% |  |
| CCC[C@H](NC(=O)Nc1ccc(Br)cc1)C(=O)NCP(=O)(OCC)OCC [Compound 117, diethyl (1[(2S)-2-1[(4-bromophenyl)carbamoyl]amino}pentanoyl]amino}methyl) phosphonate] |  | 100% |  |
| CCOP(=O)(CNC(=O)[C@H](Cc1ccccc1)NC(=O)Nc1ccc(Br)cc1)OCC [Compound 118, diethyl ({[(2S)-2-{[(4-bromophenyl)carbamoyl]amino}-3-phenylpropanoyl]amino}methyl)phosphonate] |  | 93% |  |
| CCOP(=O)(CCNC(=O)[C@H](CC(C)C)NC(=O)Nc1ccc(Br)cc1)OCC [Compound 119, diethyl (2-{[(2S)-2-{[(4-bromophenyl)carbamoyl]amino}-4-methylpentanoyl]amino}ethyl) phosphonate] |  |  | pEC50 (human FPR2 receptor): 7.79 |
| CCC[C@H](NC(=O)Nc1ccc(Br)cc1)C(=O)NCP(=O)(O)OCC [Compound 123, ethyl hydrogen ({[(2S)-2-{[(4-bromophenyl)carbamoyl]amino}pentanoyl]amino}methyl) phosphonate] |  | 96% |  |
| CC(C)C[C@H](NC(=O)Nc1ccc(C(F)(F)F)cc1)C(=O)NCC(=O)O [Compound 124, {[(2S)-4-methyl-2-({[4-(trifluoromethyl)phenyl]carbamoyl}amino)pentanoyl]amino}acetic acid] |  | 100% |  |
| CCOP(=O)(O)CNC(=O)[C@H](Cc1ccccc1)NC(=O)Nc1ccc(Br)cc1 [Compound 126, ethyl hydrogen ({[(2S)-2-{[(4-bromophenyl)carbamoyl]amino}-3-phenylpropanoyl]amino}methyl)phosphonate] |  | 100% |  |
| CCOP(=O)(CNC(=O)[C@H](CC(C)C)NC(=O)Nc1ccc(C(F)(F)F)cc1)OCC [Compound 134, diethyl ({[(2S)-4-methyl-2-({[4-(trifluoromethyl)phenyl]carbamoyl}amino)pentanoyl]amino}methyl)phosphonate] |  | 97% |  |
| CCOP(=O)(O)CNC(=O)[C@H](CC(C)C)NC(=O)Nc1ccc(C(F)(F)F)cc1 [Compound 135, ethyl hydrogen ({[(2S)-4-methyl-2-({[4-(trifluoromethyl)phenyl]carbamoyl}amino)pentanoyl]amino}methyl)phosphonate] |  | 91% |  |
| CCOP(=O)(CNC(=O)[C@H](CC(C)C)NC(=O)Nc1ccc(SC)cc1)OCC [Compound 138] |  | 91% |  |
| CCOP(=O)(CCNC(=O)CC1(C(C)C)NC(=O)N(NC(=O)Nc2ccc(Br)cc2)C1=O)OCC (stereo not drawn) [Compound 152, diethyl [2-({[1-{[(4-bromophenyl)carbamoyl]amino}-2,5-dioxo-4-(propan-2-yl)imidazolidin-4-yl]acetyl}amino)ethyl] phosphonate] |  | 100% |  |

Now from value to compound, other results behind:

| FPRL-1 Ga16-CHO (efficacy) (FPRL-1) | Compound | FPR2 (% eff) (human FPR2 receptor) | further results |
| --- | --- | --- | --- |
| 0.67 | CCC1(CC)NC(=O)N(CC(=O)Nc2ccc(F)cc2)C1=O [2-(4,4-diethyl-2,5-dioxoimidazolidin-1-yl)-N-(4-fluorophenyl)acetamide] |  |  |
| 0.98 | O=C(CN1C(=O)C2CC=CCC2C1=O)Nc1ccc(Br)cc1 (stereo not drawn) [N-(4-bromophenyl)-1,3,3a,4,7,7a-hexahydro-1,3-dioxo-2H-isoindole-2-acetamide] |  |  |
| 0.90 | O=C(CN1C(=O)C2C3C=CC(C3)C2C1=O)Nc1ccc(Br)cc1 (stereo not drawn) [N-(4-bromophenyl)-1,3,3a,4,7,7a-hexahydro-1,3-dioxo-4,7-methano-2H-isoindole-2-acetamide] |  |  |
| 0.96 | O=C(CN1C(=O)NC2(CCCC2)C1=O)Nc1ccc(Br)cc1 [N-(4-bromophenyl)-2-(2,4-dioxo-1,3-diazaspiro[4.4]non-3-yl)acetamide] |  |  |
| 0.89 | O=C(CN1C(=O)NC2(CCCCC2)C1=O)Nc1ccc(Br)cc1 [N-(4-bromophenyl)-2-(2,4-dioxo-1,3-diazaspiro[4.5]dec-3-yl)acetamide] |  |  |
| 0.96 | O=C(CN1C(=O)NC2(CCCCCC2)C1=O)Nc1ccc(Br)cc1 [N-(4-bromophenyl)-2-(2,4-dioxo-1,3-diazaspiro[4.6]undec-3-yl)acetamide] |  |  |
| 0.98 | CCCC1(CCC)NC(=O)N(CC(=O)Nc2ccc(Br)cc2)C1=O [N-(4-bromophenyl)-2-(2,5-dioxo-4,4-dipropylimidazolidin-1-yl)acetamide] |  |  |
| 0.98 | CCC1(CC)NC(=O)N(CC(=O)Nc2ccc(Br)cc2)C1=O [N-(4-bromophenyl)-2-(4,4-diethyl-2,5-dioxoimidazolidin-1-yl)acetamide] |  |  |
| 0.94 | CC1(C)NC(=O)N(CC(=O)Nc2ccc(Br)cc2)C1=O [N-(4-bromophenyl)-2-(4,4-dimethyl-2,5-dioxoimidazolidin-1-yl)acetamide] |  |  |
| 0.84 | CC1(C2CC2)NC(=O)N(CC(=O)Nc2ccc(Br)cc2)C1=O (stereo not drawn) [N-(4-bromophenyl)-2-(4-cyclopropyl-4-methyl-2,5-dioxoimidazolidin-1-yl)acetamide] |  |  |
| 0.83 | CCC1(c2ccccc2)NC(=O)N(CC(=O)Nc2ccc(Br)cc2)C1=O (stereo not drawn) [N-(4-bromophenyl)-2-(4-ethyl-2,5-dioxo-4-phenylimidazolidin-1-yl)acetamide] |  |  |
| 1.0 | CCC1(C)NC(=O)N(CC(=O)Nc2ccc(Br)cc2)C1=O (stereo not drawn) [N-(4-bromophenyl)-2-(4-ethyl-4-methyl-2,5-dioxoimidazolidin-1-yl)acetamide] |  |  |
| 0.88 | CC1(CCc2ccccc2)NC(=O)N(CC(=O)Nc2ccc(Br)cc2)C1=O (stereo not drawn) [N-(4-bromophenyl)-2-[4-methyl-2,5-dioxo-4-(2-phenylethyl)imidazolidin-1-yl]acetamide] |  |  |
| 0.79 | CCC1(CC)NC(=O)N(CC(=O)Nc2ccc(Cl)cc2)C1=O [N-(4-chlorophenyl)-2-(4,4-diethyl-2,5-dioxoimidazolidin-l-yl)acetamide] |  |  |
